The record followed here is patent US10806798B2, “Compound with effects of thrombolysis, free radical scavenging and thrombus-targeting” (Shanghai Lumosa Therapeutics Co., Ltd., priority 2012, dated 2020).

The subject of one assay is rats with stroke. The assay is described as follows: Immediate treatment after stroke onset, neural function scores (Zealonga method, 0 no loss to 5 death). As to conditions: 0.1 μmol/kg, 24 h after awake, n = 10. The class given is in vivo, SD rats. As to the method:
The in vivo anti-stroke activity of the present invention was represented by neural function scores, with a lower score indicating higher activity. A 10% chloral hydrate solution (400 mg/kg) was injected intraperitoneally into SD male rats (250-300 g) for anesthesia. An open incision of 2 cm in length was longitudinally made slightly on the right to the center of the neck, and the right common carotid artery trunk, carotid external artery and carotid internal artery were dissected along the margin of the inner side of sternocleidomastoid muscles. The open incisions in the carotid internal artery and the proximal end of the common carotid artery were occluded respectively with noninvasive arterial clips. A small open incision was made across the carotid external artery, and the distal end of the carotid external artery was ligated. The arterial clip at the proximal end of the carotid external artery was released, and 10 μl blood was drawn before the proximal end of the common carotid artery was again occluded with the noninvasive arterial clip. The 10 μl blood drawn was placed in a 1 mL EP vial and kept at RT for 30 min for coagulation of blood, and then transferred into a −20° C. refrigerator for 1 h to allow coagulation. After 1 h, the blood clots were taken out, into which 1 mL saline was added, and then broken into uniform microthrombus by using a steel spatula. The microthrombus suspension was then transferred to a 1 mL injector until use. At the same time when the clip on the carotid internal artery of the rat was released, 1 mL thrombus suspension in the injector was slowly injected from the carotid external artery of the rat to its proximal end, and the suspension was injected into the brain of the rat through the carotid internal artery. Subsequently, the proximal end of the carotid external artery was ligated, the arterial clips on the carotid internal artery and the common carotid artery were released, and blood flow was restored. The jugular common vein of the rats was dissected. The vein was immediately ligated, 3 drops of penicillin was dropped at the wound site, the wound was stitched up, and the animals were allowed to come around, as the sham operation group. Or injection of urokinase in normal saline (positive control group, at a dosage of 20000 IU/kg), normal saline (blank control group, at a dosage of 3 ml/kg), TMMZ in normal saline (component control group, at a dosage of 1 μmol/kg), a thrombolytic peptide ARPAK (SEQ. ID NO. 4), GRPAK (SEQ. ID NO. 5), RPAK (SEQ. ID NO. 3) or PAK in normal saline (component control group, at a dosage of 1 μmol/kg), or one of compounds Ia-Il in normal saline (at a dosage of 0.1 μmol/kg) was carried out. 24 h after the rats were awake, the degree of damage in the neural function was evaluated by the Zealonga method. A score of 0 indicated no sign of loss in neural function, 1 indicated the front limbs on the undamaged side could not stretch out, 2 indicated walking toward the undamaged side, 3 indicated tail-chasing walking in circles toward the undamaged side, 4 indicated involuntary walking with disturbance of consciousness, and 5 indicated death.

In a further assay the test system is thrombus. The assay is described as follows: In vivo anti-thrombus experiment (arteriovenous cannula with thread). The arrangement: species or system SD rats. Particulars: 0.1 μmol/kg by gavage; n = 11.
Assay [1] deals with NO free radicals (acetylcholine induced vasodilation). Nature of the assay: NO radical scavenging: inhibition of acetylcholine induced vasodilation of aorta rings. Details: species or system Wistar rats. Particulars: final concentration 5×10^−6 M; n = 6. As to the method: Male Wistar rats weighing 250 to 300 g were starved for 12 h before operation with free access to drinking water, and sacrificed by cervical dislocation. Thoracotomy was immediately carried out and thoracic aorta was taken out, connective tissues attached thereto were dissected, and vessels were cut into aorta rings with a length of 3 to 5 mm and placed into a perfusion bath. The bath contained 15 ml Krebs-Henseleit solution and was kept at a constant temperature of 37° C., into which 95% O2-5% CO2 gas was charged. The anchor to which the aorta rings were immobilized was connected to a tension transducer, and vasomotion curves were recorded on a dual-trace recorder at a paper speed of 1 mm/min. With the static tension adjusted to 1.0 g and 30 min of equilibration, norepinephrine at a final concentration of 10^−8 M was dosed to allow the aorta to contract for preexcitation. Norepinephrine was washed off, followed by 30 min of equilibration, and norepinephrine was added into the bath to a final concentration of 10^−8 M. When the contraction tension was steady at a plateau level, 20 μl normal saline (blank), a 20 μl solution of any one of compounds Ia to Il in normal saline (at a final concentration of 5×10^−6 M), or a 20 μl solution of NO free radical scavenger (1,3-dioxo-2-(4′-oxyacetoxyl-phenyl)-4,4,5,5-tetramethylimidazoline, TMMZ) in normal saline (at a final concentration of 5×10^−6 M) was added into the bath. When stabilized, a 20 μl acetylcholine in normal saline was added (at a final concentration of 10^−6 M). The NO scavenging ability of the drugs was expressed as a percentage of inhibition of acetylcholine induced vasodilation.

Marks after values point to notes of the source that are not given here. Side chains are listed from the residue outwards. Ends that are not written are not given here.

Method for thrombus: SD rats (male, 220 to 230 g) were randomly divided into groups with 11 rats in each group. The rats were fed at a resting state for 1 day and fasted overnight. […] After 30 min, the rats were anesthetized with a 20% urethane solution, and the right carotid artery and the left carotid vein were dissected. A cannula was filled with sodium heparin in normal saline, and one end thereof was inserted into the left vein, while the other end was injected with a certain amount of sodium heparin for anticoagulation with an injector and then inserted into the right artery. Blood flew from the right artery to the left vein through the polyethylene tubing, and the thread attached with thrombus was taken out after 15 min and the weight thereof was recorded. The wet thrombus weight was determined by subtracting the thread weight from the total weight.

With “1,3-dioxo-2-{4′-oxyacetyl-[N^ω-(Ala-Arg-Pro-Ala-Lys)-Lys-Arg-Gly-Asp-Phe]phenyl}-4,4,5,5-tetramethylimidazoline [Ic]”, in the assay on rats with stroke, the “Neural function scores (Mean ± SD)” value was 0.89 ± 1.36 ^c. In addition, the “Wet weight of thrombus (Mean ± SD mg)” value in the assay on thrombus is given as 20.50 ± 2.26 mg. In assay [1], the “Percentage of inhibition (Mean ± SD %) of vasodilatation induced by acetylcholine” value is reported as 21.78%.

Take “1,3-dioxo-2-{4′-oxyacetyl-[N^ω-(Ala-Arg-Pro-Ala-Lys)-Lys-Arg-Gly-Asp-Ser]phenyl}-4,4,5,5-tetramethylimidazoline [Ia]”: the “Neural function scores (Mean ± SD)” value in the assay with rats with stroke was 1.00 ± 1.01 ^b. Further, the “Wet weight of thrombus (Mean ± SD mg)” value with thrombus turned out to be 24.32 ± 2.10 mg. In addition, the “Percentage of inhibition (Mean ± SD %) of vasodilatation induced by acetylcholine” value in assay [1] was 22.82%.

As for “1,3-dioxo-2-{4′-oxyacetyl-[N^ω-(Ala-Arg-Pro-Ala-Lys)-Lys-Arg-Gly-Asp-Val]phenyl}-4,4,5,5-tetramethylimidazoline [Ib]”, the “Neural function scores (Mean ± SD)” value in the assay on rats with stroke is on record as 0.56 ± 1.01 ^c. The “Wet weight of thrombus (Mean ± SD mg)” value in the assay on thrombus is recorded as 20.14 ± 2.45 mg.

As for “1,3-dioxo-2-{4′-oxyacetyl-[N^ω-(Arg-Pro-Ala-Lys)-Lys-Arg-Gly-Asp-Phe]phenyl}-4,4,5,5-tetramethylimidazoline [Ii]”, in the assay on rats with stroke, the “Neural function scores (Mean ± SD)” value is recorded as 0.87 ± 1.05 ^c. Also, in the assay with thrombus, the “Wet weight of thrombus (Mean ± SD mg)” value came out at 17.79 ± 2.02 mg. Also, in assay [1], the “Percentage of inhibition (Mean ± SD %) of vasodilatation induced by acetylcholine” value was found to be 13.75%.

“1,3-dioxo-2-{4′-oxyacetyl-[N^ω-(Arg-Pro-Ala-Lys)-Lys-Arg-Gly-Asp-Ser]phenyl}-4,4,5,5-tetramethylimidazoline [Ig]”: in the assay on rats with stroke, the “Neural function scores (Mean ± SD)” value is listed as 1.00 ± 1.19 ^b. For the same substance, the “Wet weight of thrombus (Mean ± SD mg)” value in the assay on thrombus was 17.89 ± 2.05 mg. The “Percentage of inhibition (Mean ± SD %) of vasodilatation induced by acetylcholine” value in assay [1] worked out at 24.40%.

“1,3-dioxo-2-{4′-oxyacetyl-[N^ω-(Arg-Pro-Ala-Lys)-Lys-Arg-Gly-Asp-Val]phenyl}-4,4,5,5-tetramethylimidazoline [Ih]”: the “Neural function scores (Mean ± SD)” value in the assay on rats with stroke is listed as 1.33 ± 1.22 ^b. The “Wet weight of thrombus (Mean ± SD mg)” value with thrombus is 18.24 ± 1.89 mg.

With “1,3-dioxo-2-{4′-oxyacetyl-[N^ω-(Gly-Arg-Pro-Ala-Lys)-Lys-Arg-Gly-Asp-Phe]phenyl}-4,4,5,5-tetramethylimidazoline [If]”, in the assay on rats with stroke, the “Neural function scores (Mean ± SD)” value was 0.60 ± 0.84 ^c. For the same substance, the “Wet weight of thrombus (Mean ± SD mg)” value in the assay with thrombus is 17.99 ± 2.47 mg.

Take “1,3-dioxo-2-{4′-oxyacetyl-[N^ω-(Gly-Arg-Pro-Ala-Lys)-Lys-Arg-Gly-Asp-Ser]phenyl}-4,4,5,5-tetramethylimidazoline”: the “Neural function scores (Mean ± SD)” value in the assay with rats with stroke is 1.22 ± 1.32 ^b. Further, the “Wet weight of thrombus (Mean ± SD mg)” value with thrombus came to 19.46 ± 1.84 mg. Besides, the “Percentage of inhibition (Mean ± SD %) of vasodilatation induced by acetylcholine” value in assay [1] was 17.60%.

With “1,3-dioxo-2-{4′-oxyacetyl-[N^ω-(Pro-Ala-Lys)-Lys-Arg-Gly-Asp-Phe]phenyl}-4,4,5,5-tetramethylimidazoline (K([Lys-Ala-Pro])RGDF; not fully specified (N-terminus); also: 4′-oxyacetylphenyl-1,3-dioxo-4,4,5,5-tetramethylimidazoline (nitronyl nitroxide) conjugate, attachment amine not clear) [Il]”, the “Neural function scores (Mean ± SD)” value in the assay with rats with stroke is reported as 0.50 ± 0.53 ^c. The “Wet weight of thrombus (Mean ± SD mg)” value with thrombus is reported as 19.32 ± 2.56 mg. Besides, the “Percentage of inhibition (Mean ± SD %) of vasodilatation induced by acetylcholine” value in assay [1] turned out to be 22.62%.

In the case of “1,3-dioxo-2-{4′-oxyacetyl-[N^ω-(Pro-Ala-Lys)-Lys-Arg-Gly-Asp-Ser]phenyl}-4,4,5,5-tetramethylimidazoline (K([Lys-Ala-Pro])RGDS; not fully specified (N-terminus); also: 4′-oxyacetylphenyl-1,3-dioxo-4,4,5,5-tetramethylimidazoline (nitronyl nitroxide) conjugate, attachment amine not clear) [Ij]”, in the assay with rats with stroke, the “Neural function scores (Mean ± SD)” value was 0.90 ± 1.10 ^c. For the same substance, in the assay with thrombus, the “Wet weight of thrombus (Mean ± SD mg)” value is 19.45 ± 1.79 mg. Further, the “Percentage of inhibition (Mean ± SD %) of vasodilatation induced by acetylcholine” value in assay [1] was determined as 27.22%.

Turning to “1,3-dioxo-2-{4′-oxyacetyl-[N^ω-(Pro-Ala-Lys)-Lys-Arg-Gly-Asp-Val]phenyl}-4,4,5,5-tetramethylimidazoline (K([Lys-Ala-Pro])RGDV; not fully specified (N-terminus); also: 4′-oxyacetylphenyl-1,3-dioxo-4,4,5,5-tetramethylimidazoline (nitronyl nitroxide) conjugate, attachment amine not clear) [Ik]”, in the assay with rats with stroke, the “Neural function scores (Mean ± SD)” value is listed as 0.56 ± 0.53 ^c. For the same substance, the “Wet weight of thrombus (Mean ± SD mg)” value in the assay with thrombus is listed as 22.25 ± 2.25 mg. Moreover, the “Percentage of inhibition (Mean ± SD %) of vasodilatation induced by acetylcholine” value in assay [1] came to 11.13%.
